Assay results as given in the supplement of paper PMC10307832.

Key:
Assay in all cases: relative viability (nuclei count vs DMSO), 5 days (fraction); higher = more cells survive
[1] = compound: Cn1c(Nc2ccc(C(F)(F)F)cc2)nc2cc(Oc3ccnc(-c4ncc(C(F)(F)F)[nH]4)c3)ccc21 [RAF265] + Cc1cc(Nc2cc(N3CCN(C)CC3)nc(Sc3ccc(NC(=O)C4CC4)cc3)n2)n[nH]1 [Tozasertib] (partner 0.1 µM)
Outline: (§1)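 Medians of duplicate plates are given as relative viability. That measure is the nuclei count in treated wells divided by the count in vehicle wells. Counts were taken on 4× images of lung cancer cell lines in 1536-well plates, 5 days after pin-tool dosing the day after seeding with one drug alone or a fixed anchor-drug dose plus five library-drug doses (not always all listed) in √10 steps.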

[2] = compound: Cn1c(Nc2ccc(C(F)(F)F)cc2)nc2cc(Oc3ccnc(-c4ncc(C(F)(F)F)[nH]4)c3)ccc21 [RAF265] + Cc1nc(Nc2ncc(C(=O)Nc3c(C)cccc3Cl)s2)cc(N2CCN(CCO)CC2)n1 [Dasatinib] (partner 0.075 µM)
Outline: as §1

[3] = compound: Cc1ccc(-n2nc(C(C)(C)C)cc2NC(=O)Nc2ccc(OCCN3CCOCC3)c3ccccc23)cc1 [Doramapimod] + Cc1nc(NC(=O)N2CCC[C@H]2C(N)=O)sc1-c1ccnc(C(C)(C)C(F)(F)F)c1 [Alpelisib] (partner 2 µM)
Outline: as §1

[4] = compound: Cc1ccc(-n2nc(C(C)(C)C)cc2NC(=O)Nc2ccc(OCCN3CCOCC3)c3ccccc23)cc1 [Doramapimod] + O=C(CCCCCCC(=O)Nc1ccccc1)NO [Vorinostat] (partner 1 µM)
Outline: as §1

Row | Cell Line | relative viability ([1]; first compound 0.01 µM) | relative viability ([1]; first compound 0.03162 µM) | relative viability ([1]; first compound 0.1 µM) | relative viability ([1]; first compound 0.3162 µM) | relative viability ([1]; first compound 1 µM) | relative viability ([2]; first compound 0.01 µM) | relative viability ([2]; first compound 0.03162 µM) | relative viability ([2]; first compound 0.1 µM) | relative viability ([2]; first compound 0.3162 µM) | relative viability ([2]; first compound 1 µM) | relative viability ([3]; first compound 0.02 µM) | relative viability ([3]; first compound 0.06325 µM) | relative viability ([3]; first compound 0.2 µM) | relative viability ([3]; first compound 0.6325 µM) | relative viability ([3]; first compound 2 µM) | relative viability ([4]; first compound 0.02 µM) | relative viability ([4]; first compound 0.06325 µM) | relative viability ([4]; first compound 0.2 µM) | relative viability ([4]; first compound 0.6325 µM) | relative viability ([4]; first compound 2 µM)
1 | NCI-H838 | 0.266 | 0.283 | 0.288 | 0.311 | 0.223 | 0.332 | 0.3 | 0.288 | 0.256 | 0.256 | 0.973 | 0.953 | 1 | 1.09 | 0.971 | 0.749 | 0.749 | 0.766 | 0.808 | 0.726
2 | A549 |  |  |  |  |  |  |  |  |  |  | 0.69 | 0.626 | 0.675 | 0.784 | 0.55 |  |  |  |  | 
3 | NCI-H1648 | 0.425 | 0.431 | 0.598 | 0.466 | 0.417 |  |  |  |  |  |  |  |  |  |  | 0.348 | 0.405 | 0.52 | 0.709 | 0.224
4 | NCI-H1623 | 0.507 | 0.474 | 0.475 |  | 0.392 | 0.558 | 0.496 | 0.645 |  | 0.313 |  |  |  |  |  |  |  |  |  | 
5 | SK-LU-1 | 0.333 | 0.273 | 0.296 | 0.278 | 0.204 | 0.177 | 0.177 | 0.166 | 0.181 | 0.137 | 0.901 | 0.925 | 1.14 | 1.19 | 0.866 | 0.944 | 0.75 | 0.824 | 0.933 | 0.867
6 | NCI-H2085 | 0.965 | 0.706 | 0.914 | 0.822 | 0.558 | 0.241 | 0.315 | 0.289 | 0.205 | 0.276 | 1.03 | 0.928 | 0.839 | 0.913 | 0.93 | 0.827 | 0.821 | 0.782 | 0.872 | 0.722
7 | NCI-H460 | 0.446 | 0.468 | 0.628 | 0.445 | 0.293 | 0.686 | 0.535 | 0.596 | 0.371 | 0.266 | 0.446 | 0.467 | 0.372 | 0.441 | 0.357 | 0.773 | 0.817 | 0.76 | 0.794 | 0.551
8 | Calu-6 |  |  |  |  |  |  |  |  |  |  | 1.05 | 0.924 | 0.866 | 1.16 | 0.986 |  |  |  |  | 
9 | RERF-LC-KJ | 0.54 | 0.482 | 0.507 | 0.39 | 0.386 | 0.822 | 0.735 | 0.658 | 0.456 | 0.4 | 0.857 | 0.865 | 0.765 | 1.01 | 0.867 | 0.785 | 0.715 | 0.741 | 0.427 | 0.729
10 | LCLC-103H | 0.472 | 0.48 | 0.42 | 0.424 | 0.227 | 0.431 | 0.467 | 0.478 | 0.386 | 0.338 | 0.998 | 0.917 | 0.961 | 0.966 | 0.973 | 0.788 | 0.799 | 0.875 | 0.845 | 0.751
11 | NCI-H1792 |  |  |  |  |  | 0.848 | 0.83 | 0.759 | 0.575 | 0.293 | 0.606 | 0.658 | 0.578 | 0.713 | 0.521 |  |  |  |  | 
12 | NCI-H1563 |  |  |  |  |  | 0.469 | 0.482 | 0.508 | 0.45 | 0.441 | 0.859 | 0.912 | 0.893 | 1 | 0.802 |  |  |  |  | 
13 | NCI-H2342 | 0.551 | 0.592 | 0.542 | 0.52 | 0.463 | 0.319 | 0.349 | 0.298 | 0.276 | 0.288 |  |  |  |  |  | 0.761 | 0.747 | 0.806 | 0.849 | 0.829
14 | HCC-44 | 0.892 | 0.779 | 1.25 | 1.07 | 0.821 |  |  |  |  |  | 0.811 | 0.764 | 0.756 | 0.76 | 0.701 | 1.17 | 1.18 | 1.14 | 1.14 | 1.2
15 | NCI-H1299 |  |  |  |  |  |  |  |  |  |  | 1.12 | 1.13 | 1.1 | 1.1 | 1.01 |  |  |  |  | 
16 | ChaGo-K-1 | 0.215 | 0.246 | 0.217 | 0.243 | 0.235 | 0.64 | 0.644 | 0.515 | 0.42 | 0.497 |  |  |  |  |  | 0.778 | 0.769 | 0.689 | 0.596 | 0.64
17 | SW 900 | 0.648 | 0.583 | 0.594 | 0.526 | 0.295 | 0.595 | 0.548 | 0.552 | 0.297 | 0.272 |  |  |  |  |  | 0.571 | 0.514 | 0.546 | 0.584 | 0.436
18 | EBC-1 |  |  |  |  |  |  |  |  |  |  | 0.804 | 0.792 | 0.785 | 0.933 | 0.675 |  |  |  |  | 
19 | IA-LM |  |  |  |  |  |  |  |  |  |  | 0.658 | 0.728 | 0.693 | 0.73 | 0.669 | 0.988 | 0.868 | 0.86 |  | 0.745
20 | NCI-H1703 |  |  |  |  |  |  |  |  |  |  | 0.363 | 0.336 | 0.323 | 0.393 | 0.278 |  |  |  |  | 
